Measured values published in patent publication US10017535B2, “Amphiphilic compounds with neuroprotective properties” (USTAV ORGANICKE CHEMIE A BIOCHEMIE AV CR, v.v.i., priority 2014, dated 2018).
Like-named read-outs stand apart in the source and are kept apart here.

Target: T1, NR1-1a/NR2B NMDA receptor (Rattus norvegicus, UniProt P35439+Q00960)
T1 construct: expressed in transfected cells; host or cells: HEK293 cells (ATCC CRL1573)
Assay: Patch-clamp inhibition of glutamate-evoked currents at recombinant NMDA receptors in transfected HEK293 cells
Assay type: cell-based
Protocol: Transfected cells were identified by means of fluorescent green protein (GFP) fluorescence. Its genus was transfected together with the both receptor subunit genes.
Steroid-containing solutions were prepared from fresh solution (20 mmol·l^−1, of steroid dissolved in dimethyl sulfoxide, DMSO), which was added to the extracellular solution containing 1 mmol·l^−1 glutamic acid and 10 μmol·l^−1 of glycine. Identical concentrations of DMSO were added to all other extracellular solutions.
Current responses produced by extracellular application of glutamic acid solution (1 mmol·l^−1) were measured from the whole cell by patch-clamp technique, which is used for the study of transport of charged particles through model and also natural biological membranes. The currents were measured at membrane potential maintained at −60 mV and +60 mV.
Same amounts (0.3 μg) of cDNA coding NR1, NR2 and GFP (green fluorescent protein) (pQBI 25, Takara, Japan) were mixed with 0.9 μl of Matra-A Reagent (IBA, Göttingen, Germany) and added to confluent HEK293 cells cultivated in v 24-pit cultivating plate. After trypsination, the cells were re-suspended in Opti-MEM® I containing 1% fetal bovine serum. Subsequently, 20 mmol·l^−1 MgCl2, 1 mmol l^−1 D,L-2-amino-5-phosphonopentanoic acid, 3 mmol·l^−1 kynurenic acid was added to the mixture and cells were inoculated on the polylysine-coated glass plates having 25 mm in diameter. The following genes coding NMDA receptor subunits were used for transfection: NR1-1 a (GenBank accession No. U08261) and NR2B (GenBank accession No. M91562).
HEK293 Cultured cells were used for electrophysiological investigations with a latency of 16-40 h after transfection. Whole-cell currents were measured by patch-clamp amplifier (Axopatch 1D; Axon Instruments, Inc. Foster City, USA) after capacitance and serial resistance (<10 MΩ) compensation to 80-90%. Agonist-induced responses were filtered to 1 kHz (8-pole Bessel filter; Frequency Devices, Haverhill, USA), digitized with sampling frequency of 5 kHz and analyzed by pClamp version 9 software (Axon Instruments, USA). […] Extracellular solution (ECS) contained 160 mmol·l^−1 sodium chloride, 2.5 mmol·l^−1 potassium chloride, 10 mmol·l^−1 HEPES, 10 mmol·l^−1 glucose, 0.2 mmol·l^−1 EDTA a 0.7 mmol·l^−1 calcium chloride (pH adjusted to 7.3 by sodium hydroxide solution). Glycine was added to both testing and control solution. Moreover, bicuculline (10 μmol·l^−1) and tetrodotoxin (0.5 μmol·l^−1) was added to hippocampal cultures. Steroid-containing solutions were prepared from fresh solution (20 mmol·l^−1) of steroid dissolved in dimethyl sulfoxide (DMSO). Same concentrations of DMSO were used in all extracellular solutions. Control and experimental solutions were applied via microprocessor-controlled perfusion system with approx. rate of solution exchange in areas adjacent to cells reaching ˜10 ms.
Current responses produced by 100 μmol·l^−1 of NMDA (in the case of hipocampal neurones), or by 1 mmol·l^−1 of glutamate (on recombinant NMDA receptors) were measured at membrane potential maintained at −60 mV. […] Relative effect of steroid-induced inhibition was used for calculating IC50.

[1] = calculated from relative steroid-induced inhibition, Hill's coefficient 1.2, read-out: IC50
[2] = HEK293, steroid concentration 50 μmol·l^−1, 1 mmol·l^−1 glutamate, −60 mV, read-out: Mean % change ± SD
[3] = HEK293, read-out: Mean % change ± SD

T1 sequence (Q00960 27-1482, other chains not shown): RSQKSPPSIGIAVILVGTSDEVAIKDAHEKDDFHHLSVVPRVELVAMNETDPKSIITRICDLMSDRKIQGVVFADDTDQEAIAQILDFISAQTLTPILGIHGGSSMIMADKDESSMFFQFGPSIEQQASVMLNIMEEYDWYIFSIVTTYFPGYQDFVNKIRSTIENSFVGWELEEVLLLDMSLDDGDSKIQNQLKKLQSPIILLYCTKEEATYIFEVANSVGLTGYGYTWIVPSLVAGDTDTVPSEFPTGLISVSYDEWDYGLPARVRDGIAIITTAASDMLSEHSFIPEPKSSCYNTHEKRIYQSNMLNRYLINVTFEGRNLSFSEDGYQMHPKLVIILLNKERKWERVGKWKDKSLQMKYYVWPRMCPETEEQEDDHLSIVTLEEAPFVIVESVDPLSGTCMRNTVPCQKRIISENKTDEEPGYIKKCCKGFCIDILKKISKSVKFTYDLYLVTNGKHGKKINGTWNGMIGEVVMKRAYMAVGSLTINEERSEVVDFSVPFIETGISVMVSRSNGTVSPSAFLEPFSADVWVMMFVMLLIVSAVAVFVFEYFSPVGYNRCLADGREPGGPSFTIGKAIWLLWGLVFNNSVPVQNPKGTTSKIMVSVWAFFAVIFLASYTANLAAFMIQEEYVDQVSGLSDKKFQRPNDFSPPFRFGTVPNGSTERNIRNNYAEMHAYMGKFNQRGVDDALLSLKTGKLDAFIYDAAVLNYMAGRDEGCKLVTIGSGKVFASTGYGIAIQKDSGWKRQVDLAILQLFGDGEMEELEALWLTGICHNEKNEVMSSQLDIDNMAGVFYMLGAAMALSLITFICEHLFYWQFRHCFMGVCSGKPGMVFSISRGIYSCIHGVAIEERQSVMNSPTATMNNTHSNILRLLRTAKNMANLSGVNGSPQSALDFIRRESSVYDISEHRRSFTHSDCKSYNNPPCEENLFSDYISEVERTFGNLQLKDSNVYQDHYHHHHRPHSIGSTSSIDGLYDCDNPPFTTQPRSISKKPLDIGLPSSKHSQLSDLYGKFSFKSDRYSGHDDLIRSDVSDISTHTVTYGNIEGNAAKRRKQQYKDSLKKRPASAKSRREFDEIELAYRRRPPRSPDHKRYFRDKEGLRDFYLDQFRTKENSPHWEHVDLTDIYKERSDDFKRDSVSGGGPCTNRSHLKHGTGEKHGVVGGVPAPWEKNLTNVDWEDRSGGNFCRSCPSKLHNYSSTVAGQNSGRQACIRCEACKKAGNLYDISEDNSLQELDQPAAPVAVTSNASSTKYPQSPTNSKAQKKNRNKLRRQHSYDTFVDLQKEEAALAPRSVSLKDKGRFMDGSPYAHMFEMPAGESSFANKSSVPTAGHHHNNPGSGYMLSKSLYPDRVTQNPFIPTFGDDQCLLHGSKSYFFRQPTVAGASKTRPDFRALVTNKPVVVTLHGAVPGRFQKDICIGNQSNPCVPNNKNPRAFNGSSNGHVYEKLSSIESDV

## C[C@]12CC[C@@H](OS(=O)(=O)O)C[C@H]1CC[C@H]1CCCC[C@@H]12.c1ccncc1 [Compound 8, Pyridinium (2R,4aS,4bS,8aR,10aR)-4a-methyltetradecahydrophenanthren-2-yl 2-Sulfate]
[1]
  IC50: 28.3 µM
Steroid concentration 100 μmol·l^−1, 1 mmol·l^−1 glutamate, −60 mV
  Mean % change ± SD: 78.3 ± 5.5%

## COC[C@@]1(C)CC[C@H]2[C@@H](CC[C@@H]3C[C@H](OS(=O)(=O)O)CC[C@@]32C)[C@@H]1C [Compound 18, Pyridinium (2R,4aS,4bS,7S,8S,8aS,10aR)-7-(methoxymethyl)-4a,7,8-trimethyltetra-decahydrophenanthren-2-yl 2-sulfate]
[2]
  inhibition at 50 µM: 60.5 ± 4.6%
[1]
  IC50: 33 µM

## COC[C@@]1(C)CC[C@H]2[C@@H](CC[C@@H]3C[C@H](OC(=O)CCC(=O)O)CC[C@@]32C)C1C (stereo partly drawn) [Compound 19, 4-(((2R,4aS,4bS,7S,8aS,10aR)-7-(methoxymethyl)-4a,7,8-trimethyltetradecahydrophenanthren-2-yl)oxy)-4-oxobutanoic acid]
[2]
  inhibition at 50 µM: 47.4 ± 4.3%
[1]
  IC50: 55 µM

## COC(=O)C1(C)CCC2C(CCC3CC(OS(=O)(=O)O)CCC32C)C1C [Compound 22, Pyridinium (2R,4aS,7S,8S,10aR)-7-(methoxycarbonyl)-4a,7,8-trimethyltetra-decahydrophenanthren-2-yl 2-sulfate]
HEK293, steroid concentration 100 μmol·l^−1, 1 mmol·l^−1 glutamate, −60 mV, read-out: Mean % change ± SD
  inhibition at 100 µM: 40.9 ± 6.1%
[1]
  IC50: 74.6 µM

## C[C@@H]1CC[C@H]2[C@@H](CC[C@@H]3C[C@H](OS(=O)(=O)O)CC[C@@]32C)C1 [Compound 35, Pyridinium (2R,4aS,4bS,7R,8aS,10aR)-4a,7-dimethyltetradecahydrophenanthren-2-yl 2-sulfate]
[2]
  inhibition at 50 µM: 85 ± 1.2%
[1]
  IC50: 12 µM

## COC(=O)[C@@]1(C)CC[C@H]2[C@@H](CC[C@@H]3C[C@H](OS(=O)(=O)O)CC[C@@]32C)C1 [Compound 40, Methyl (2S,4aS,4bS,7R,8aR,10aS)-2,4b-dimethyl-7-(sulfooxy)tetradecahydrophenanthren-2-carboxylate]
[2]
  inhibition at 50 µM: 14.4 ± 1.8%
[1]
  IC50: 224 µM

## C[C@@]12CCC[C@H]1[C@@H]1CC[C@@H]3C[C@H](OS(=O)(=O)O)CC[C@]3(C)[C@H]1CC2.c1ccncc1 [Compound 49, Pyridinium (3R,5R,8S,9S,10S,13S,14S)-10,13-dimethylhexadecahydro-1H-cyclopenta[a]phenanthren-3-yl 3-sulfate]
[1]
  IC50: 2.1 µM
Steroid concentration 2 μmol·l^−1, 1 mmol·l^−1 glutamate, −60 mV
  Mean % change ± SD: 49.2 ± 6.6%

## C[C@@]12CCC[C@H]1[C@@H]1CC[C@@H]3C[C@H](OC(=O)C(=O)O)CC[C@]3(C)[C@H]1CC2 [Compound 50, 2-(((3R,5R,8S,9S,10S,13S,14S)-10,13-Dimethylhexadecahydro-1H-cyclopenta[a]phenanthren-3-yl)oxy)-2-oxoethanoic acid]
[3]
  inhibition at 10 µM: 64 ± 7%
[1]
  IC50: 6.3 µM

## C[C@@]12CCC[C@H]1[C@@H]1CC[C@@H]3C[C@H](OC(=O)CC(=O)O)CC[C@]3(C)[C@H]1CC2 [Compound 51]
[3]
  inhibition at 10 µM: 42 ± 14%
[1]
  IC50: 15.5 µM

## C[C@@]12CCC[C@H]1[C@@H]1CC[C@@H]3C[C@H](OC(=O)CCC[N+](C)(C)C)CC[C@]3(C)[C@H]1CC2 [Compound 62, 4-(((3R,5R,8S,9S,10S,13S,14S)-10,13-Dimethylhexadecahydro-1H-cyclopenta[a]-phenanthren-3-yl)oxy)-N,N,N-trimethyl-4-oxobutan-1-ammonium chloride]
[3]
  inhibition at 1 µM: 34 ± 5%
[1]
  IC50: 1.7 µM

## C[C@]12CC[C@@H](OC(=O)CCC(=O)O)C[C@H]1CC[C@@H]1[C@@H]2CC[C@]2(C)C=CC[C@@H]12 [Compound 64, 4-(((3R,5R,8R,9S,10S,13R,14S)-10,13-Dimethyl-2,3,4,5,6,7,8,9,10,11,12,13,14,15-tetra-decahydro-1H-cyclopenta[a]phenanthren-3-yl)oxy)-4-oxobutanoic acid]
[3]
  inhibition at 10 µM: 45.9 ± 11.7%
[1]
  IC50: 12.9 µM

## C[C@]12CC[C@@H](OC(=O)CC(=O)O)C[C@H]1CC[C@@H]1[C@@H]2CC[C@]2(C)C=CC[C@@H]12 [Compound 65, 3-(((3R,5R,8R,9S,10S,13R,14S)-10,13-Dimethyl-2,3,4,5,6,7,8,9,10,11,12,13,14,15-tetradecahydro-1H-cyclopenta[a]phenanthren-3-yl)oxy)-3-oxopropanoic acid]
[3]
  inhibition at 10 µM: 44 ± 11%
[1]
  IC50: 13.5 µM

## C=C1CC[C@H]2[C@@H]3CC[C@@H]4C[C@H](OC(=O)C[N+](C)(C)C)CC[C@]4(C)[C@H]3CC[C@]12C [Compound 76, 2-(((3R,5R,8R,9S,10S,13S,14S)-10,13-Dimethyl-17-methylenehexadecahydro-1H-cyclopenta[a]phenanthren-3-yl)oxy)-N,N,N-trimethyl-2-oxoethan-1-ammonium chloride]
[3]
  inhibition at 50 µM: 50 ± 10%
[1]
  IC50: 51.7 µM

## C/C=C1/CC[C@H]2[C@@H]3CC[C@@H]4C[C@H](OC(=O)CCCC(=O)O)CC[C@]4(C)[C@H]3CC[C@]12C [Compound 85, 5-(((3R,5R,8R,9S,10S,13S,14S,Z)-17-Ethylidene-10,13-dimethylhexadecahydro-1H-cyclopenta[a]phenanthren-3-yl)oxy)-5-oxopentanoic acid]
[3]
  inhibition at 50 µM: 59.4 ± 7.8%
[1]
  IC50: 38.4 µM

## C[C@]12CC[C@@H](OS(=O)(=O)O)C[C@H]1CC[C@@H]1[C@@H]2CC[C@]2(C)[C@@H](I)CC[C@@H]12 [Compound 93, Pyridinium (3R,5R,8R,9S,10S,13S,14S,17S)-17-iodo-10,13-dimethylhexadecahydro-1H-cyclopenta[a]phenanthren-3-yl 3-sulfate]
[3]
  inhibition at 5 µM: 90.5 ± 2.2%
[1]
  IC50: 0.8 µM

## C[C@]12CC[C@@H](OS(=O)(=O)O)C[C@H]1CC[C@@H]1[C@@H]2CC[C@@]2(C)[C@H]1CCC2(F)F [Compound 95, Pyridinium (3R,5R,8R,9S,10S,13S,14S)-17,17-difluoro-10,13-dimethylhexadecahydro-1H-cyclopenta[a]phenanthren-3-yl 3-sulfate]
  IC50: 7 µM
[3]
  inhibition at 10 µM: 61.2 ± 5.1%

## C[C@]12CC[C@@H](OS(=O)(=O)O)C[C@H]1CC[C@@H]1[C@@H]2CC[C@@]2(C)[C@H]1CC[C@@]21CO1 [Compound 97, Pyridinium (3R,5R,8R,9S,10S,13S,14S,17S)-10,13-dimethylhexadecahydrospiro-[cyclopenta[a]phenanthren-17,2′-oxiran]-3-yl 3-sulfate]
[3]
  inhibition at 100 µM: 78 ± 8.9%
[1]
  IC50: 45 µM

## CC12CCCCC1C1CCC3CC(OS(=O)(=O)O)CCC3(C)C1CC2 [Compound 101, Pyridinium (2R,4aS,4bS,6aS,10bS,6aS,12aR)-4a,6a-dimethyloctadecahydrochrysen-2-yl 2-sulfate]
HEK293, steroid concentration 5 μmol·l^−1, 1 mmol·l^−1 glutamate, −60 mV, read-out: Mean % change ± SD
  inhibition at 5 µM: 69.1 ± 5.9%
[1]
  IC50: 2.3 µM

## C=C1C[C@H]2[C@@H]3CC[C@@H]4C[C@H](OS(=O)(=O)O)CC[C@]4(C)[C@H]3CC[C@]2(C)C1 [Compound 114, Pyridinium (3R,5R,8S,9S,10S,13R,14S)-10,13-dimethyl-16-methylenhexadekhydro-1H-cyclopenta[a]phenanthren-3-yl 3-sulfate]
[3]
  inhibition at 3 µM: 59.1 ± 3.8%
[1]
  IC50: 2.1 µM

## C[C@@]12CCC[C@H]1[C@H]1CC[C@H]3C[C@H](OS(=O)(=O)O)CC[C@]3(C)[C@@H]1CC2.c1ccncc1 [Compound 127, Pyridinium (3R,5S,8R,9R,10S,13S,14S)-10,13-dimethylhexadecahydro-1H-cycopenta[a]phenanthren-3-yl 3-sulfate]
[1]
  IC50: 1.7 µM
Steroid concentration 3 μmol·l^−1, 1 mmol·l^−1 glutamate, −60 mV
  Mean % change ± SD: 34.0 ± 5.0%

## C[C@@]12CCC[C@H]1[C@@H]1CC[C@@H]3C[C@H](N4CC(C(=O)O)CC4=O)CC[C@]3(C)[C@H]1CC2 (stereo partly drawn) [Compound 131, 1-((3R,5R,8S,9S,10S,13S,14S)-10,13-Dimethylhexadecahydro-1H-cyclopenta[a]phenanthren-3-yl)-5-oxopyrrolidine-3-carboxylic acid]
[3]
  inhibition at 10 µM: 34.7 ± 7.2%
[1]
  IC50: 17.7 µM
